Experiment [1] relates to Plasmodium falciparum. As to the kind of experiment: ST_JUDE: Plasmodium falciparum 3D7 EC50 (uM) as measured by SYBR green dye. The class given is functional, organism-based.
Experiment [2] has as its system Plasmodium falciparum. As to the kind of experiment: ST_JUDE: Plasmodium falciparum K1 EC50 (uM) as measured by SYBR green dye. The class given is functional, organism-based.

Consider `COC(=O)C1C(=O)C2=C(CC1C)NC(=O)CC2c1ccc([N+](=O)[O-])cc1` (centres undefined), for which the EC50 – broadly, the concentration at which the effect is half-maximal – in experiment [1] turned out to be 3010 nM; in experiment [2] it was 1660 nM.
`COc1ccccc1OCCCCN1CCCC1`: the EC50 in experiment [1] and in experiment [2] was greater than 15000 nM in each case.
As to `Cc1ccc(O)c(Nc2nc(-c3ccccc3)nc3ccccc23)c1`, the EC50 was 3830 nM in experiment [1] and 1310 nM in experiment [2].
As for `CCN(CC)c1ccc(CNC(C)C(O)c2ccccc2)cc1` (centres undefined), the EC50 in experiment [1] amounted to 4100 nM; in experiment [2], 980 nM.
Turning to `CC(=O)N(C1=C(N(C)C)C(=O)c2ccccc2C1=O)c1ccc(I)cc1`, the EC50 in experiment [1] was found to be 31.5 nM; in experiment [2] it was 45.8 nM.
As for `COCCCNc1nc2cc(OC)c(OC)cc2c2nc(-c3ccccc3)nn12`, the EC50 was 85.5 nM in experiment [1] and greater than 15000 nM in experiment [2].
For `Cc1cc(N2CCN(C)CC2)nc(N2CCN(C(=O)c3ccc(C(C)(C)C)cc3)CC2)n1`, the EC50 in experiment [1] and in experiment [2] was greater than 15000 nM each time.
Take `C[N+]1(CCCCCCCCCCCO)CCCCC1`: the EC50 in experiment [1] and in experiment [2] was greater than 15000 nM each time.
Take `COc1ccc2nc(N(Cc3cccnc3)C(=O)C3CCCCC3)sc2c1`: the EC50 worked out at 3510 nM in experiment [1] and 2650 nM in experiment [2].
Taken in the same sequence, the figures for `CCC1=[N+](C)c2cccc3cccc(c23)N1C` were 5130 nM and 4410 nM.
Taken in the same sequence, the figures for `CC(=O)NC(c1ccccc1)c1cc(Cl)c2cccnc2c1O` (centres undefined) were greater than 15000 nM and greater than 15000 nM.
As to `CN1C(=O)C(=Cc2ccc(-c3ccc([N+](=O)[O-])cc3O)o2)C(=O)N(C)C1=O`, the EC50 in experiment [1] and in experiment [2] was greater than 15000 nM in each case.
Turning to `CCCC(=O)NC(c1cccc([N+](=O)[O-])c1)c1ccc2cccnc2c1O` (centres undefined), the EC50 in experiment [1] was 2880 nM; in experiment [2] it was 2480 nM.
Turning to `CCCN1C(=O)c2[nH]nc(-c3c(C)cc(C)cc3O)c2C1c1ccc(OC)c(OC)c1` (centres undefined), the EC50 in experiment [1] and in experiment [2] was greater than 15000 nM each time.
In the case of `CN1CCN(Cc2c(O)ccc3c(=O)c(Oc4ccccc4Cl)c(C(F)(F)F)oc23)CC1`, the EC50 came out at 1720 nM in experiment [1] and 710 nM in experiment [2].
Turning to `COc1ccc(CCNC(=S)Nc2cc(Cl)ccc2Cl)cc1OC`, the figures for the EC50 in experiment [1] and in experiment [2] were 3430 nM and 2940 nM, respectively.
With `CCOC(=O)C1=C(C)N=c2s/c(=C\c3ccc(O)c(OC)c3)c(=O)n2C1c1ccc(F)cc1` (centres undefined), the EC50 in experiment [1] was greater than 15000 nM; in experiment [2], 2260 nM.
Consider `O=C(Nc1ccccc1Cl)c1cc2ccccc2cc1O`, for which the values for the EC50 in experiment [1] and in experiment [2] were greater than 15000 nM and 547 nM, respectively.
With `CCc1ccc(NC(=O)C2c3ccccc3C(=O)N(C3CCCC3)C2c2cccs2)cc1` (centres undefined), the figures for the EC50 in experiment [1] and in experiment [2] were 1830 nM and 1870 nM, respectively.
Take `CCOC(=O)c1ccc(N2Cc3ccccc3C2)cc1O`: the EC50 in experiment [1] and in experiment [2] was greater than 15000 nM each time.
For `CCCCCC(O)(c1ccc(F)cc1)C(CN1CCOCC1)c1ccc(Cl)cc1` (centres undefined), the EC50 in experiment [1] was 1830 nM; in experiment [2], 935 nM.
For the compound `C[n+]1ccccc1/C=C/c1ccc(O)cc1`, the results for the EC50 in experiment [1] and in experiment [2] were 3180 nM and 3280 nM, respectively.
As for `CN1c2ccccc2N(C)C1c1ccc(Sc2ccc(C3N(C)c4ccccc4N3C)o2)o1`, the EC50 in experiment [1] was greater than 15000 nM; in experiment [2] it was 1650 nM.
Consider `CCN1C=CC(=Cc2ccc3cc(C)ccc3[n+]2C)C=C1`, for which the EC50 amounted to 265 nM in experiment [1] and 106 nM in experiment [2].
Regarding `COc1ccc(Cl)cc1NC(=O)CSc1nc(-c2ccccc2Cl)ns1`, the EC50 in experiment [1] came out at 1430 nM; in experiment [2], 2660 nM.
For the compound `C#CCOc1cc(Br)c(C2CC(=O)Nc3ccc4ccccc4c32)cc1OC` (centres undefined), the EC50 in experiment [1] was found to be 3960 nM; in experiment [2] it was 2960 nM.
As for `COC(=O)Oc1ccc2c(=O)c(Oc3ccc4ccccc4c3)c(C(F)(F)F)oc2c1`, the EC50 in experiment [1] and in experiment [2] was greater than 15000 nM in each case.
Regarding `CCOc1ccc2c(c1)CN(Cc1ccc(Cl)cc1)CO2`, the EC50 in experiment [1] was 1490 nM; in experiment [2], 284 nM.
On to `CCN1/C(=C/c2sc3ccccc3[n+]2CCO)C=Cc2cc(OC)ccc21`, for which the EC50 came to 1070 nM in experiment [1] and 571 nM in experiment [2].
Regarding `COc1ccccc1C(=O)Nc1nnc(Cc2nc3ccccc3[nH]2)s1`, the EC50 in experiment [1] and in experiment [2] was greater than 15000 nM throughout.
On to `CCOC(=O)c1cnc2c(C)cc(C)cc2c1NCc1cccnc1`, for which the EC50 is 4770 nM in experiment [1] and 6180 nM in experiment [2].
For `CCOC(=O)c1ccc(Nc2nc3nonc3nc2NCc2ccco2)cc1`, the EC50 in experiment [1] and in experiment [2] was greater than 15000 nM each time.
On to `COCCn1/c(=N/C(=O)c2nc3ccccc3s2)sc2cc(S(C)(=O)=O)ccc21`, for which the EC50 in experiment [1] and in experiment [2] was greater than 15000 nM throughout.
For `COc1ccc(Cn2c(SCc3ccccc3F)nc3nccnc3c2=O)cc1`, the values for the EC50 in experiment [1] and in experiment [2] were 344 nM and 11700 nM, respectively.
Regarding `CC(C)CCNCC(O)CON=C1c2ccccc2-c2ccccc21` (centres undefined), the EC50 is 1710 nM in experiment [1] and 735 nM in experiment [2].
Turning to `CC(C)(C)c1ccc2c(c1)CN(Cc1ccccc1)CO2`, the EC50 worked out at 239 nM in experiment [1] and 52.3 nM in experiment [2].
As for `CCCCCN1COc2ccc3c4c(c(=O)oc3c2C1)CCCC4`, the EC50 in experiment [1] was 1690 nM; in experiment [2], 822 nM.
`COc1ccc(Cl)c2sc(N(Cc3cccnc3)C(=O)c3ccc(C(C)=O)cc3)nc12`: the EC50 in experiment [1] came out at 4060 nM; in experiment [2], 3860 nM.
Regarding `O=C(c1cccc(Cl)c1)N(Cc1cccnc1)c1nc2c(F)cccc2s1`, the EC50 is greater than 15000 nM in experiment [1] and 6680 nM in experiment [2].
As to `COc1ccc(-c2cn3c(n2)sc2cc(C(=O)NCCCN4CCN(C)CC4)ccc23)cc1`, the EC50 in experiment [1] was found to be 2040 nM; in experiment [2], 6140 nM.
Consider `Cc1ccc(S(=O)(=O)Oc2ccc(/C=N/N=C(N)N)cc2)cc1`, for which the EC50 was 1180 nM in experiment [1] and greater than 15000 nM in experiment [2].
On to `CC[N+](C)(CC)CCCOc1ccc2c(c1)C(=O)c1cc(OCCC[N+](C)(CC)CC)ccc1-2`, for which the EC50 turned out to be 655 nM in experiment [1] and 413 nM in experiment [2].
For `CC(C)(C)c1ccc(-c2cc(-c3cc(Cl)ccc3O)[nH]n2)cc1`, the values for the EC50 in experiment [1] and in experiment [2] were 4230 nM and 1340 nM, respectively.
As to `CCCCCOc1ccc(NC2=C(N3CCCC3)C(=O)c3ccccc3C2=O)cc1`, the values for the EC50 in experiment [1] and in experiment [2] were greater than 15000 nM and 1920 nM, respectively.
As to `Cc1ccc2sc(NNC(=O)c3ccc(S(=O)(=O)N(C)C)cc3)nc2c1C`, the figures for the half-maximal effective concentration (EC50) in experiment [1] and in experiment [2] were greater than 15000 nM and 3820 nM, respectively.
On to `O=C(Nc1ccc(Cl)cc1C(=O)Nc1cccc(C(F)(F)F)c1)c1ccco1`, for which the EC50 in experiment [1] and in experiment [2] was greater than 15000 nM in each case.
As to `O=C(CN(Cc1ccc(F)cc1)S(=O)(=O)c1ccc(Cl)cc1)Nc1ccccc1Cl`, the figures for the EC50 in experiment [1] and in experiment [2] were greater than 15000 nM and 1460 nM, respectively.
The like results for `CN1CCN(CCCNC(=O)c2ccc3c(c2)sc2nc(-c4ccccc4)cn23)CC1` were, in that order, 4060 nM and 9150 nM.
Turning to `COc1ccc2sc(N(Cc3cccnc3)C(=O)c3ccc(Cl)cc3)nc2c1`, the concentration for a half-maximal effect (EC50) in experiment [1] and in experiment [2] was greater than 15000 nM in each case.
Regarding `CCOc1ccc(NC(=O)c2sc3nc4n(c(=O)c3c2C)CCC4)cc1`, the EC50 in experiment [1] and in experiment [2] was greater than 15000 nM throughout.
In the case of `O=C(CSc1nccn1-c1ccc(F)cc1)Nc1cc(C(F)(F)F)ccc1Cl`, the EC50 in experiment [1] was found to be 2960 nM; in experiment [2], 4110 nM.
With `CCc1c(C)nc(-n2nc(C)cc2NC(=O)c2cccc(Br)c2)nc1O`, the 50% effective concentration (EC50) in experiment [1] and in experiment [2] was greater than 15000 nM in each case.
